These are literature values, as cited in patent US9198881B2, “Equine nutritional supplement” (priority 2011, dated 2015).

Where two headings read alike, the source gives them in different places.

This series deals with nitric oxide. The conditions noted are these: humans, 8 weeks of supervised aerobic training, FIGS. 4 and 5.

In the case of “Glycine Propionyl L-Carnitine Hydrochloride”, the nitric oxide levels entry is “statistically significant enhancement” (1.5 grams per day) and “statistically significant enhancement” (4.5 grams per day).
